One data set relates to rats. Put plainly: tolerability in rats. It is filed as in vivo. Particulars: doses at which the compound exhibits CCK-B antagonist activity. The source says:
(§1) The compounds of the invention are essentially non-toxic and therapeutically useful doses.

Another data set deals with T1, CCK-B receptor (Cavia porcellus, UniProt H0VZC5).
T1 construct: guinea pig cortex assay; from tissue; host or cells: guinea pig cortex
T1 sequence (H0VZC5 1-426): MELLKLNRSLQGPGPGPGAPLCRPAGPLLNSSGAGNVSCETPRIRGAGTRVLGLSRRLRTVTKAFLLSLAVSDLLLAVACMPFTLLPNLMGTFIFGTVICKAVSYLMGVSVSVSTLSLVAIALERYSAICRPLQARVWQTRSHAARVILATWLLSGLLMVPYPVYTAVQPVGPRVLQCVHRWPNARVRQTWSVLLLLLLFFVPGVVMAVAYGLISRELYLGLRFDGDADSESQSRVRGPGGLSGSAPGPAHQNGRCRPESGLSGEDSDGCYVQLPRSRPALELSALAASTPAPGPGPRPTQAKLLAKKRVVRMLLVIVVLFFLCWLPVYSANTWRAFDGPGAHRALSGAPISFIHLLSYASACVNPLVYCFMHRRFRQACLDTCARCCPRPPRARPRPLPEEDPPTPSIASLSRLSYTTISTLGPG
Put plainly: CCK-B receptor binding affinity (guinea pig cortex assay). As for the experimental part: The affinity of the compound of the invention for the CCK-B receptor has also been determined using the guinea pig codex assay as described by G Dal Fornoto et al J. Pharmacol Exp. Ther., 261 1056-1063, 1992.
The binding affinity of the compounds of the invention for the CCK-B receptor (guinea pig cortex assay) was determined using the procedure of G Dal Forno et al J. Pharmacol. Exp & Ther. 261--1056-1063. The pKi values determined with respresentative compounds of invention were as follows: […]

The next data set has as its system dogs. The experiment in a line: tolerability in dogs. Particulars: doses at which the compound exhibits CCK-B antagonist activity. It is filed as in vivo.
Source text: as §1

Each structure is given as a SMILES string.

Regarding `COc1cccc(NC(=O)NC2N=C(CN3CCOCC3)c3ccccc3N(CC(=O)N(C)c3ccccc3)C2=O)c1` (single isomer, unassigned; (+)) [Example 14, (+)-2-{3-[3-(3-Methoxy-phenyl)-ureido]-5-morpholin-4-ylmethyl-2-oxo-2.3-dihydro-benzo [e][1,4]diazepin-1-yl}-N-methyl-N-phenyl-acetamide], the “untoward effects in rats” value with rats is reported as “no untoward effects were observed”. Further, the affinity on CCK-B receptor corresponds to a Ki of 1 nM. In the data set on dogs, the “untoward effects in dogs” value is recorded as “no untoward effects were observed”.

Turning to `CN(C(=O)CN1C(=O)C(NC(=O)Nc2cccc(C#N)c2)N=C(CN2CCCCC2)c2ccccc21)c1ccccc1` (stereo not shown) [Example 1, 2-{3-[3-(3-Cyano-phenyl)-ureido]-2-oxo-5-piperidin-1-ylmethyl-2,3-dihydro-benzo-[e][4.1]diazepin-1-yl}-N-methyl-N-phenyl-acetamide], on CCK-B receptor, the affinity, expressed as Ki, was 1 nM.

Turning to `CN(C(=O)CN1C(=O)C(NC(=O)Nc2cccc(C#N)c2)N=C(CN2CCCC2)c2ccccc21)c1ccccc1` (stereo not shown) [Example 2, 2-{3-[3-(3-Cyano-phenyl)-ureido]-2-oxo-5-pyrrolidin-1-ylmethyl-2,3-dihydro-[e][1,4]diazepin-1-yl}-N-methyl-N-phenyl-acetamide], the affinity on CCK-B receptor, expressed as Ki, was 3.98 nM.

On to `CC(C)NCC1=NC(NC(=O)Nc2cccc(C#N)c2)C(=O)N(CC(=O)N(C)c2ccccc2)c2ccccc21` (stereo not shown) [Example 3, 2-{-[3-(3-Cyano-phenyl)ureido]-5-(isopropylamino-methyl)-2-oxo-2,3-dihydro-benzo-[e][1,4]diazepin-1-yl}-N-methyl-N-phenyl-acetamide], for which the Ki at CCK-B receptor is 2.51 nM.

Compound `CN(C(=O)CN1C(=O)C(NC(=O)Nc2cccc(C#N)c2)N=C(CN2CCSCC2)c2ccccc21)c1ccccc1` (stereo not shown) [Example 4, 2-{3-[3-(3-Cyano-phenyl)-ureido]-2-oxo-5-[1,4]thiazinan-4-ylmethyl-2,3-dihydro-benzo[e][1,4]diazepin-1-y}-N-methyl-N-phenyl-acetamide] had a Ki at CCK-B receptor of 1.58 nM.

As for `C[C@@H]1CC[C@H](C)N1C(=O)CN1C(=O)C(NC(=O)Nc2cccc(C#N)c2)N=C(CN2CCOCC2)c2ccccc21` (stereo partly shown) [Example 5], on CCK-B receptor, the affinity, expressed as Ki, was 3.16 nM.

`CN(C(=O)CN1C(=O)C(NC(=O)Nc2cccc(C#N)c2)N=C(CN2CCOCC2)c2ccccc21)c1ccc(F)cc1` (stereo not shown) [Example 6, 2-{3-[3-(3-Cyano-phenyl)-ureido]-5-morpholin-4-ylmethyl-2-oxo-2,3-dihydro-benzo-[e][1,4]diazepin-1-yl}-N-(4-fluoro-phenyl)-N-methyl-acetamide] had a Ki on CCK-B receptor of 2 nM.

As to `CCN(C(=O)CN1C(=O)C(NC(=O)Nc2cccc(C#N)c2)N=C(CN2CCOCC2)c2ccccc21)c1ccccc1` (stereo not shown) [Example 7, 2-{3-[3-(3-Cyano-phenyl)-ureido]-5-morpholin-4-ylmethyl-2-oxo-2,3-dihydro-benzo[e][1,4]diazepin-1yl}-N-ethyl-N-phenyl-acetamide], the Ki at CCK-B receptor was 1.58 nM.

On CCK-B receptor, `CC(C)(C)C(=O)CN1C(=O)C(NC(=O)Nc2cccc(C#N)c2)N=C(CN2CCOCC2)c2ccccc21` (stereo not shown) [Example 8, 1-(3-Cyano-phenyl)-3-[1-(3,3-dimethyl-2-oxo-butyl)-5-morpholin-4-ylmethyl-2-oxo-2,3-dihydro-1H-benzo[e][1,4]diazepin-3-yl]-urea] gave a Ki of 1.58 nM.

`COc1cccc(NC(=O)NC2N=C(CN3CCOCC3)c3ccccc3N(CC(=O)N(C)c3ccccc3)C2=O)c1` (stereo not shown) [Example 9, 2-{3-[3-(3-Methoxy-phenyl)-ureido]-5-morpholin-4-ylmethyl-2-oxo-2,3-dihydro-benzo[e][1,4]diazepin-1-yl}-N-methyl-N-phenyl-acetamide] had a Ki at CCK-B receptor of 1.26 nM.

For the compound `CN(C(=O)CN1C(=O)C(NC(=O)Nc2ccccc2)N=C(CN2CCOCC2)c2ccccc21)c1ccccc1` (stereo not shown) [Example 10, N-Methyl-2-[5-morpholin-4-ylmethyl-2-oxo-3-(3-phenyl-ureido)-2,3-dihydro-benzo[e][1,4]diazepin-1-yl]-N-methyl-N-phenyl-acetamide], the Ki at CCK-B receptor is 0.794 nM.

The compound `CN(C(=O)CN1C(=O)C(NC(=O)Nc2cccc(C(F)(F)F)c2)N=C(CN2CCOCC2)c2ccccc21)c1ccccc1` (stereo not shown) [Example 11, N-Methyl-2-{5-morpholin-4-ylmethyl-2-oxo-3-[3-(3-trifluoromethyl-phenyl)-ureido]-2,3-dihydro-benzo[e][1,4]diazepin-1-yl}-N-phenyl-acetamide] had a Ki on CCK-B receptor of 0.501 nM.

In turn, `CN(C(=O)CN1C(=O)C(NC(=O)Nc2cccc(N)c2)N=C(CN2CCOCC2)c2ccccc21)c1ccccc1` (stereo not shown) [Example 13, 2-{3-[3-(3-Amino-phenyl)-ureido]-5-morpholin-4-ylmethyl-2-oxo-2,3-dihydro-benzo[e][1,4]diazepin-1-yl}-N-methyl-N-phenyl-acetamide] gave a Ki on CCK-B receptor of 6.31 nM.

Take `CN1CCN(CC2=NC(NC(=O)Nc3cccc(C#N)c3)C(=O)N(CC(=O)N(C)c3ccccc3)c3ccccc32)CC1` (stereo not shown) [Example 16, 2-{3-[3-(3-Cyano-phenyl)-ureido]-5-(4-methyl-piperazin-1-ylmethyl)-2-oxo-2,3-dihydro-benzo[e][1,4]diazepin-1-yl}-N-methyl-N-phenyl-acetamide]: affinity on CCK-B receptor was put at a Ki of 5.01 nM.

In the case of `COc1cccc(NC(=O)NC2N=C(CCN(C)C)c3ccccc3N(CC(=O)N(C)c3ccccc3)C2=O)c1` (stereo not shown) [Example 17], the Ki on CCK-B receptor was 2.51 nM.

Turning to `CN(C(=O)CN1C(=O)C(NC(=O)Nc2cccc(C#N)c2)N=C(CN2CCOCC2)c2ccccc21)c1ccccc1` (stereo not shown) [Example 18, 2-{3-[3-(3-Cyano-phenyl)-ureido]-5-morpholin-4-ylmethyl-2-oxo-2,3-dihydro-benzo [e][1,4]diazepin-1-yl}-N-methyl-N-phenyl-acetamide], the affinity at CCK-B receptor, expressed as Ki, was 1.26 nM.

In the case of `O=C(Nc1cccc(-c2cnco2)c1)NC1N=C(CN2CCOCC2)c2ccccc2N(CC(=O)N2CCCC2)C1=O` (stereo not shown) [Example 19, 1-[5-(Morpholin-4-yl-methyl)-2-oxo-1-(2-oxo-2-pyrrolidin-1-yl-ethyl)-2,3-dihydro-benzo[e][1,4]diazepin-3-yl]-3-(3-oxazol-5-yl-phenyl)-urea], at CCK-B receptor, the Ki was 3.16 nM.

Source of the values: US5569654A, “Benzodiazepinones” (Glaxo Group Limited, priority 1992, dated 1996).
